According to patent US9314540B2, “Compounds for use in imaging, diagnosing and/or treatment of diseases of the central nervous system” (PIRAMAL IMAGING SA, priority 2010, dated 2016):

Assays:
[1] = Biodistribution in NMRI mice, brain radioactivity by gamma counter; assay type: in vivo; conditions: for brain uptake of radioactivity (peak): 2 min p.i.
Method: FIG. 1: Distribution of [^18F] D2 Deprenyl (compound of Example 3) detected via a gamma-detector is shown in a time frame of 4 hours in mouse brains (n=3).
Biodistribution of [^18F] D2 Deprenyl (compound of Example 3) was investigated in NMRI mice weighing 31.1-38.5 g at seven time points. For each time point 3 mice were used. The mice were injected each with 0.256 MBq [^18F] D2 Deprenyl. After the respective time points the mice were sacrificed, the organs taken out and measured in a gamma counter. The results were decay corrected. […] Unexpectedly, the elimination ratio defined by peak uptake at 2 min to uptake at 30 min was 4.2 times. This is improved over the non-deuterated compound where said ratio was 3.6 (Peak: 7.5±0.04% ID/g at 2 min p.i. and 2.10±0.33% ID/g at 30 min p.i.) and will add to a better brain image quality. Therefore, an improved diagnostic performance can be expected.

[2] = In vitro metabolite profile in liver microsomes and hepatocytes (LC/MS); assay type: in vitro ADME, rat, mouse and human; conditions: for oxidation at the propargyl moiety (M-7) as additional metabolic pathway: microsome and hepatocyte incubations; for major metabolic pathway: rat, mouse and human liver microsomes, human and rat hepatocytes
Text: FIG. 9: In vitro metabolite pathways in rat, mouse, dog, monkey and human microsomes and rat and human heaptocyte preparations. The metabolites were detected by LC/MS. (a) Metabolite pathways of non-deuterated [^18F] Deprenyl and (b) Metabolite pathways of [^18F] D2 Deprenyl.
[^18F] D2 Deprenyl and [^19F] D2 Deprenyl have been investigated regarding their metabolic properties in vitro and in vivo. […] D2 Deprenyl (FIG. 9).

[3] = Plasma radioactivity and metabolite profile over time in cynomolgus monkey plasma; assay type: in vivo
Text: D2 Deprenyl and non-deuterated [^18F] Deprenyl in cynomolgus monkey plasma.
D2 Deprenyl and (b) non-deuterated [^18F] Deprenyl in cynomolgus monkey plasma. The time course of the parent compounds as well as metabolites expressed in [area %] generated from respective HPLC chromatograms are shown.
Plasma radioactivity metabolic profiles have been monitored over time for [^18F] D2 Deprenyl compared to the non-deuterated [^18F] Deprenyl in cynomolgus monkey plasma (FIG. 3). […] D2 Deprenyl in plasma the radioactivity for [^18F] D2 Deprenyl was 18% and 31% higher as observed for [^18F] Deprenyl at the 30 and 60 min time points, respectively (FIG. 3). In addition, metabolites occurring in cynomolgus monkey plasma over time have been monitored for both ligands (FIG. 4). […] Deprenyl. Specifically metabolite M1 was less produced (FIG. 4a). In addition, time activity curves (TAC) of [^18F] […] This gives more flexibility regarding quantification of the PET data and is, thus, an advantage.

human MAO-B = target: T1, human MAO-B (Homo sapiens, UniProt P27338); assay: Amplex Red Monoamine Oxidase Assay-Kit, MAO-B affinity; assay type: biochemical; conditions: human MAO-B from baculovirus-infected insect cells; read-out: affinity towards MAO-B, IC50
T1 construct: purchased Sigma; host or cells: insect cells infected with recombinant baculovirus
T1 sequence (P27338 1-520): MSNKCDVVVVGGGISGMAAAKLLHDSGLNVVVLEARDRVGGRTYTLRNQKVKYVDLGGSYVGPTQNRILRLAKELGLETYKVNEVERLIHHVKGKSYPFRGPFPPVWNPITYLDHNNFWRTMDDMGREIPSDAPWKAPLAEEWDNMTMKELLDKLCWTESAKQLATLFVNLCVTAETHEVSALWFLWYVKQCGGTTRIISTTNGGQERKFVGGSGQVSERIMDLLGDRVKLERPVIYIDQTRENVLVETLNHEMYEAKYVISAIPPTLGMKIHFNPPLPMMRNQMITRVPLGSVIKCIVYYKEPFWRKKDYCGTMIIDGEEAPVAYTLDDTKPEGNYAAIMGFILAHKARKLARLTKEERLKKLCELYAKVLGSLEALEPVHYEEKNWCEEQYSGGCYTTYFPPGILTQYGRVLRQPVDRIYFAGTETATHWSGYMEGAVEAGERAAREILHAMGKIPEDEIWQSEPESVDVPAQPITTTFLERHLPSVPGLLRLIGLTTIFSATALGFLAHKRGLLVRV
Method: [^19F] […] This was determined by incubating human MAO-B prepared from insect cells infected with recombinant baculovirus containing respective cDNA inserts (Sigma) with respective reagents of the Amplex Red Monoamine Oxidase Assay-Kit (Molecular Probes).

MAO-A = target: T2, MAO-A (Homo sapiens, UniProt P21397); assay: Amplex Red Monoamine Oxidase Assay-Kit, MAO-A affinity; assay type: biochemical; conditions: read-out: affinity towards MAO-A
T2 sequence (P21397 1-527): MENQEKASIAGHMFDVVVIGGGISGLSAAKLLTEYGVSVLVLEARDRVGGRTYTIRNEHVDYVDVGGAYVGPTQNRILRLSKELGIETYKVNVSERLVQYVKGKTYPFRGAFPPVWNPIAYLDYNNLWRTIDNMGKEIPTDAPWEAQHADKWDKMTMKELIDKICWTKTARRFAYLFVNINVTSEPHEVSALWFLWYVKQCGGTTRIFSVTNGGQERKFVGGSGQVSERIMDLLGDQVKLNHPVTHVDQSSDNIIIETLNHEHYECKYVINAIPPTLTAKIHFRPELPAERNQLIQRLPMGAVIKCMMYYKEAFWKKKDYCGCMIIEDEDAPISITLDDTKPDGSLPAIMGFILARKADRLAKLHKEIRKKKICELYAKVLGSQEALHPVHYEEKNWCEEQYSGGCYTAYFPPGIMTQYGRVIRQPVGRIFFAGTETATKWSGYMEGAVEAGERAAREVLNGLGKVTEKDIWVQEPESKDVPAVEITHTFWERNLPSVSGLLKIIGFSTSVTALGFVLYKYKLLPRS

Row | Compound | elimination ratio, peak uptake at 2 min to uptake at 30 min [1] | brain uptake of radioactivity (peak) [1] | brain radioactivity ([1]; 30 min p.i.) | oxidation at the propargyl moiety (M-7) as additional metabolic pathway [2] | major metabolic pathway [2] | brain radioactivity ([1]; 4 hours p.i.) | formation of metabolite M1 compared to non-deuterated [18F] Deprenyl [3] | stability in plasma compared to non-deuterated [18F] Deprenyl [3] | plasma radioactivity higher than for [18F] Deprenyl ([3]; 30 min) | plasma radioactivity higher than for [18F] Deprenyl ([3]; 60 min) | IC50 (human MAO-B) | IC50 (MAO-A)
1 | C#CCN(C)[C@H](C[18F])Cc1ccccc1 [non-deuterated compound, reference compound] | 3.6 | 7.5±0.04 % ID/g | 2.10±0.33 % ID/g | observed | N-dealkylation | – | – | – | – | – | – | –
2 | [2H]C([2H])(C#C)N(C)[C@H](CF)Cc1ccccc1 [[^18F] D2 Deprenyl, N-[(2S)-1-[^18F]fluoro-3-phenylpropan-2-yl]-N-methyl(1,1-^2H2)— prop-2-yn-1-amine] | 4.2 | 6.03±1.09 % ID/g | 1.44±0.15 % ID/g | – | – | 0.91±0.09 % ID/g | less produced | more stable | 18% | 31% | – | –
3 | [2H]C([2H])(C#C)N(C)[C@H](CF)Cc1ccccc1 [[^19F] D2 Deprenyl, N-[(2S)-1-fluoro-3-phenylpropan-2-yl]-N-methyl(1,1-^2H)prop-2-yn-1-amine] | – | – | – | not detectable any more | N-dealkylation | – | – | – | – | – | 41.3 nM | > 2000 nM
